# Measurements published in the NIST ThermoML archive (doi:10.1021/je030130y).
# Numbers after ± are expanded uncertainties.
# Key:
# [1] = 101.3 kPa, Liquid; for viscosity: Capillary tube (Ostwald / Ubbelohde) method; for mass density: Pycnometric method
# [2] = xn = mol fraction of the nth substance listed; details: 101.3 kPa, Liquid; for viscosity: Capillary tube (Ostwald / Ubbelohde) method; for mass density: Pycnometric method
Compound,viscosity ([1]; 298.15 K),mass density ([1]; 298.15 K),viscosity ([1]; 303.15 K),mass density ([1]; 303.15 K),viscosity ([1]; 308.15 K),mass density ([1]; 308.15 K),viscosity ([1]; 313.15 K),mass density ([1]; 313.15 K),"viscosity ([2]; 298.15 K, x1 = 1)","mass density ([2]; 298.15 K, x1 = 1)","viscosity ([2]; 303.15 K, x1 = 1)","mass density ([2]; 303.15 K, x1 = 1)","viscosity ([2]; 308.15 K, x1 = 1)","mass density ([2]; 308.15 K, x1 = 1)","viscosity ([2]; 313.15 K, x1 = 1)","mass density ([2]; 313.15 K, x1 = 1)",also measured
c1ccccc1 [benzene],0.603 ± 0.006 mPa·s,873.4 ± 0.5 kg/m3,0.568 ± 0.005 mPa·s,868.2 ± 0.5 kg/m3,0.531 ± 0.005 mPa·s,862.9 ± 0.5 kg/m3,0.5 ± 0.005 mPa·s,857.4 ± 0.5 kg/m3,–,–,–,–,–,–,–,–,–
c1ccccc1 [benzene] + CN(C)C=O,–,–,–,–,–,–,–,–,–,–,–,–,–,–,–,–,"viscosity ([2]; 298.15 K, x2 = 0): 0.603 ± 0.006 mPa·s; mass density ([2]; 298.15 K, x2 = 0): 873.4 ± 0.5 kg/m3; viscosity ([2]; 303.15 K, x2 = 0): 0.568 ± 0.005 mPa·s; mass density ([2]; 303.15 K, x2 = 0): 868.2 ± 0.5 kg/m3; viscosity ([2]; 308.15 K, x2 = 0): 0.531 ± 0.005 mPa·s; mass density ([2]; 308.15 K, x2 = 0): 862.9 ± 0.5 kg/m3; viscosity ([2]; 313.15 K, x2 = 0): 0.5 ± 0.005 mPa·s; mass density ([2]; 313.15 K, x2 = 0): 857.4 ± 0.5 kg/m3"
c1ccccc1 [benzene] + Clc1ccccc1,–,–,–,–,–,–,–,–,0.603 ± 0.006 mPa·s,873.4 ± 0.5 kg/m3,0.568 ± 0.005 mPa·s,868.2 ± 0.5 kg/m3,0.531 ± 0.005 mPa·s,862.9 ± 0.5 kg/m3,0.5 ± 0.005 mPa·s,857.4 ± 0.5 kg/m3,–
Clc1ccccc1 [chlorobenzene],0.756 ± 0.006 mPa·s,1100.9 ± 0.4 kg/m3,0.714 ± 0.006 mPa·s,1095.8 ± 0.4 kg/m3,0.673 ± 0.005 mPa·s,1090.8 ± 0.4 kg/m3,0.635 ± 0.005 mPa·s,1085.1 ± 0.4 kg/m3,–,–,–,–,–,–,–,–,–
CN(C)C=O [dimethylformamide],0.803 ± 0.006 mPa·s,944.5 ± 0.3 kg/m3,0.756 ± 0.006 mPa·s,939.8 ± 0.3 kg/m3,0.71 ± 0.005 mPa·s,935.1 ± 0.3 kg/m3,0.673 ± 0.005 mPa·s,930.2 ± 0.4 kg/m3,–,–,–,–,–,–,–,–,–
CN(C)C=O [dimethylformamide] + Clc1ccccc1,–,–,–,–,–,–,–,–,0.803 ± 0.006 mPa·s,944.5 ± 0.3 kg/m3,0.756 ± 0.006 mPa·s,939.8 ± 0.3 kg/m3,0.71 ± 0.005 mPa·s,935.1 ± 0.3 kg/m3,0.673 ± 0.005 mPa·s,930.2 ± 0.4 kg/m3,–
